Data from patent US10130677B2, “Antimicrobial peptide and uses thereof” (priority 2013, dated 2018).
Read-outs that look alike come from different tables or passages of the source.

Assays:
[1] = tested on: S. aureus JAR060131 biofilm formation; assay type: cell-based, Staphylococcus aureus
Procedure: After solubilization with ethanol, the optical density at 590 nm is determined as a measure of biofilm mass.
Peptides were incubated with 1×10^8 CFU/ml of S. aureus JAR060131 in biofilm-adjusted BM2 in 96-wells polypropylene plates as described in Antimicrob Agents Chemother 2012; 56: 2696-2704. After 24 hours incubation at 37° C., planktonic bacteria were removed by four washes with PBS and biofilms were stained with crystal violet. After solubilization with ethanol, the optical density at 590 nm was determined as a measure of biofilm mass.
To assess the antibiofilm activity of the peptides in the presence of plasma, 96-wells polypropylene plates were coated with plasma by overnight incubation with 20% plasma at 4° C. Wells were washed once with sterile water and inoculated with S. aureus and peptides as described above.

S. aureus JAR060131 = assay type: cell-based, Staphylococcus aureus; details: for IC99.9: approx. 1 × 10^6 CFU/ml S. aureus JAR, within 2 hrs (Table 2)
Procedure: Polypeptides of the invention preferably have an in vitro IC99.9 of at most 150 μM after 2 hours at 37° C. against at least one microbial species in the presence of 50% plasma. Said IC99.9 is preferably determined in accordance with a method for determining the antimicrobial activity as described herein in the Examples. Said method described in the Examples for determining antimicrobial activity of microbes not associated with biofilm involves the mixing of 50 microL of a solution of a polypeptide in PBS with addition of human plasma at a final concentration of 50% and 20 microL of bacterial suspension with 5×10^6 CFU per mL of PBS in a well. After incubation of this mixture for 2 hours at 37° C. under shaking conditions, a sample is used for assessment of the bacterial counts. The lowest peptide concentration at which there is 99.9% of bacteria killed, is called the inhibitory concentration (IC) 99.9. Bacterial counts can be determined by manual CFU counting. For determining antibacterial activity for instance 1×10^6 CFU/ml bacteria are used, for determining antifungal activity for instance 1×10^5 cells/ml are used.
(§1) Peptides were incubated with 1×10^6 CFU/ml of a mid-logarithmic culture of S. aureus JAR060131, methicillin resistant S. aureus (MRSA) LUH14616, Staphylococcus epidermidis RP62a, and Pseudomonas aeruginosa PAO1 in PBS without or with addition of pooled human plasma (Sanquin, Amsterdam, the Netherlands) at a final concentration of 50%. Antimicrobial activity is expressed as the 99.9% lethal concentration (LC99.9), i.e., the lowest peptide concentration which killed ≥99.9% of bacteria after 2 hours of incubation at 37° C. under shaking conditions.

[2] = tested on: UV-killed S. aureus JAR060131-induced IL-8 production; test: S. aureus neutralization in whole human blood; assay type: cell-based; details: for IC50: UV-killed S. aureus JAR060131-induced IL-8, blood from one donor
Procedure: (§2) Peptides were pre-incubated with 500 ng/ml LPS (E. coli 054) or 2 mg/ml LTA (S. aureus, endotoxin-free) or 1×10^9 CFU/ml of UV-killed S. aureus JAR060131 for 30 min at 37° C. Diluted whole human blood was stimulated with the peptide-LPS/LTA/S. aureus mixtures for 20 hours at 37° C. IL-12p40 and IL-8 levels in supernatants were determined using ELISA.

[3] = tested on: LPS (E. coli 054)-induced IL-12p40 production; test: LPS neutralization in whole human blood; assay type: cell-based; details: for IC90: LPS-induced IL-12p40, blood from two donors
Excerpt: (§3) The term “anti-inflammatory activity” of a polypeptide as used herein refers to inhibiting, reducing or preventing an inflammatory response in a subject that has been infected by microbes, e.g. bacteria, viruses, fungi, and/or parasites. Anti-inflammatory activity of polypeptides of the invention is achieved by inhibiting, reducing or preventing the release of pro-inflammatory microbial compounds, such as lipoteichoic acid (LTA), peptidoglycan (PG) and/or lipopolysaccharides (LPS). Anti-inflammatory activity can be measured by methods known in the art. Examples of such method are a LPS neutralization assay and a LTA neutralization assay as described in the Examples of this application. In such method, a polypeptide of the invention is mixed with a fixed concentration of LPS or LTA, such as 500 ng/ml LPS or 2 mg/ml LTA, and incubated for 30 min. Thereafter, these mixtures were added to diluted fresh human whole blood and 20 hours thereafter the level of cytokines (e.g. 1L-8 for LTA and 1L-12p40 for LPS) in the blood sample are measured by ELISA.
as §2

[4] = tested on: Staphylococcus epidermidis RP62a; assay type: cell-based; details: 50% plasma
Procedure: as §1

A. niger PagsA-lux = test: Effect on fungal growth; assay type: cell-based, Aspergillus niger; details: for concentration inhibiting A. niger growth: 25% plasma, light micrographs only, 16 hours (FIG. 2)
Procedure: The effect of the peptides on fungal growth was assessed using Aspergillus niger. Peptides were incubated with 7.5×10^4 spores/ml of A. niger PagsA-lux in PBS without or with addition of pooled human plasma at a final concentration of 25%. As positive control, spores were treated with the antifungal caspofungin (Cancidas). Absorbance was measured over time and at 16 hours, fungal growth was visualized using light microscopy.

[5] = tested on: LTA (S. aureus)-induced IL-8 production; test: LTA neutralization in whole human blood; assay type: cell-based; details: for IC50: LTA-induced IL-8, blood from one donor
Excerpt: as §3, §2

[6] = JAR060131 biofilm formation, 24 h

Substance	IC99.9 (S. aureus JAR060131; 50% plasma) [µM]	IC99.9 (S. aureus JAR060131; PBS) [µM]	further results
Ac-LKRLYKRVFRLLKRYYRQLRRPVR-NH2 [Peptide P159, J LKRLYKRVFRLLKRYYRQLRRPVR B]	12.8	1.6	IC50 [1, 6]: 12800 nM; IC50 ([1]; plasma-coated wells (FIG. 3B), read-out: concentration inhibiting biofilm formation for 50%): 3200 nM; IC50 [2]: 0.195 µM; IC90 [3]: 0.25 nM; IC50 ([3]; diluted whole human blood, 20 hours): 0.05 nM; higher bactericidal activity as compared to OP-145 [4]: 43 fold; concentration inhibiting A. niger growth (A. niger PagsA-lux): 102.4 µM; fold lower antifungal activity as compared to OP-145 (A. niger PagsA-lux; PBS): 2 fold; fold increased LTA-neutralizing ability versus OP-145 [5]: 4 fold; IC50 [5]: 0.195 µM
Ac-LKRLYKRLAKLIKRLYRYLKKPVR-NH2 [Peptide P145, J LKRLYKRLAKLIKRLYRYLKKPVR B]	25.6	1.6	IC50 [1, 6]: 6400 nM; concentration needed to inhibit biofilm formation for 50%, relative to OP-145 and P159 ([1]; plasma-coated wells (FIG. 3B)): two-fold higher concentration; fold higher concentration than OP-145 needed to inhibit S. aureus-induced IL-8 production for >50% [2]: 8 fold; IC50 [2]: 1.56 µM; IC90 [3]: 0.75 nM; higher bactericidal activity as compared to OP-145 [4]: 43 fold; concentration inhibiting A. niger growth (A. niger PagsA-lux): 102.4 µM; fold increased LTA-neutralizing ability versus OP-145 [5]: 4 fold; IC50 [5]: 0.195 µM
J LKKLWKRLARLWKRIIRQLKKPVR B (Ac-LKKLWKRLARLWKRIIRQLKKPVR-NH2) [Peptide P160]	25.6	1.6	–
J LKKVWKRVFRILKRFLRYLKRPVR B (Ac-LKKVWKRVFRILKRFLRYLKRPVR-NH2) [Peptide P157]	51.2	0.8	–
J LKKVWKRVARLIKRWFRYLRRPVR B [Peptide P150]	25.6	1.6	–
J LKKVYKRVARLIKRLFRYLKRPVR B [Peptide P155]	102.4	1.6	fold increase of activity in the presence of plasma as compared to OP-145 (S. aureus JAR060131; 50% plasma): 2 fold
J LRRLWKRLVRIIKRIYRQLKRPVR B (Ac-LRRLWKRLVRIIKRIYRQLKRPVR-NH2) [Peptide P140]	25.6	1.6	–
J LKKVYKRLARLLKRYIRYLRRPVR B (Ac-LKKVYKRLARLLKRYIRYLRRPVR-NH2) [Peptide P149]	102.4	1.6	fold increase of activity in the presence of plasma as compared to OP-145 (S. aureus JAR060131; 50% plasma): 2 fold
J LKKLYKRLFKLWKRLYRYLKKPVR B (Ac-LKKLYKRLFKLWKRLYRYLKKPVR-NH2) [Peptide P151]	25.6	1.6	–
J LKKLYKRLFKILKRILRYLRKPVR B (Ac-LKKLYKRLFKILKRILRYLRKPVR-NH2) [Peptide P146]	51.2	1.6	–
J LRRVYKRLFRLWKRIIRQLRRPVR B (Ac-LRRVYKRLFRLWKRIIRQLRRPVR-NH2) [Peptide P158]	25.6	1.6	–
J LRRLWKRVFKIIKRLFRQLKKPVR B (Ac-LRRLWKRVFKIIKRLFRQLKKPVR-NH2) [Peptide P163]	25.6	0.8	–
J LRRVWKRVARIIKRLYRYLKRPVR B (Ac-LRRVWKRVARIIKRLYRYLKRPVR-NH2) [Peptide P161]	25.6	1.6	–
J LKKLWKRLARLLKRFIRQLRRPVR B (Ac-LKKLWKRLARLLKRFIRQLRRPVR-NH2) [Peptide P147]	51.2	1.6	–
J LKRLWKRLFKILKRYYRYLRRPVR B (Ac-LKRLWKRLFKILKRYYRYLRRPVR-NH2) [Peptide P162]	25.6	1.6	–
J LKKLYKRVAKIWKRWIRYLKKPVR B (Ac-LKKLYKRVAKIWKRWIRYLKKPVR-NH2) [Peptide P144]	25.6	1.6	fold increase of activity in the presence of plasma as compared to OP-145 (S. aureus JAR060131; 50% plasma): 8 fold
J LRRVYKRLARLIKRYLRQLKKPVR B (Ac-LRRVYKRLARLIKRYLRQLKKPVR-NH2) [Peptide P152]	25.6	1.6	–
J LRRLWKRLVKLWKRFFRYLKKPVR B [Peptide P156]	51.2	1.6	–
J LKKLWKRVFRIWKRIFRYLKRPVR B (Ac-LKKLWKRVFRIWKRIFRYLKRPVR-NH2) [Peptide P139]	51.2	0.8	–
Ac-LKRLYKALAKLIKRLYRYLKKPVR-NH2 [Peptide P252, J LKRLYKALAKLIKRLYRYLKKPVR B]	–	–	LC99.9 (S. aureus JAR060131; 50% plasma, experiment 2013.01.15 (Table 6)): 51.2 µM; LC99.9 (S. aureus JAR060131; 50% plasma, experiment 2013.01.18 (Table 6)): 12.8 µM; LC99.9 (S. aureus JAR060131; PBS, experiment 2013.01.15 (Table 6)): 1.6 µM; LC99.9 (S. aureus JAR060131; PBS, experiment 2013.01.18 (Table 6)): 0.8 µM
J LRKLWKRVVKIWKRYLRQLRRPVR B (Ac-LRKLWKRVVKIWKRYLRQLRRPVR-NH2) [Peptide P153]	25.6	1.6	–
J LRRLYKRVVKLWKRLFRQLRRPVR B (Ac-LRRLYKRVVKLWKRLFRQLRRPVR-NH2) [Peptide P143]	51.2	1.6	fold increase of activity in the presence of plasma as compared to OP-145 (S. aureus JAR060131; 50% plasma): 4 fold
J LRRLYKRVFRLLKRWWRYLKRPVR B (Ac-LRRLYKRVFRLLKRWWRYLKRPVR-NH2) [Peptide P141]	25.6	0.8	–
J LRRLWKRLVKILKRWFRYLRRPVR B (Ac-LRRLWKRLVKILKRWFRYLRRPVR-NH2) [Peptide P142]	51.2	0.8	–
J LRKLWKRLAKIIKRLYRYLRRPVR B (Ac-LRKLWKRLAKIIKRLYRYLRRPVR-NH2) [Peptide P154]	51.2	1.6	–
